From patent US10081631B2, “2-(1H-indazol-3-yl)-1H-imidazo[4,5-C]pyridine and therapeutic uses thereof” (Samumed, LLC, priority 2014, dated 2018)

Tests used:
[1] = system: Wnt activity (Sp5-Luc reporter, SW480 colon carcinoma cells); test: Screening assay for Wnt activity: Sp5-Luc reporter gene assay in SW480 cells; type: cell-based; settings: Homo sapiens, 42 h incubation, luminescence
From the text: The screening assay for Wnt activity is described as follows. Reporter cell lines can be generated by stably transducing cancer cell lines (e.g., colon cancer) or primary cells (e.g., IEC-6 intestinal cells) with a lentiviral construct that includes a Wnt-responsive promoter driving expression of the firefly luciferase gene.
SW480 colon carcinoma cells were transduced with a lentiviral vector expressing luciferase with a human Sp5 promoter consisting of a sequence of eight TCF/LEF binding sites. SW480 cells stably expressing the Sp5-Luc reporter gene and a hygromycin resistance gene were selected by treatment with 150 μg/ml of hygromycin for 7 days. These stably transduced SW480 cells were expanded in cell culture and used for all further screening activities. For Sp5-Luc reporter gene assays, the cells were plated at 10,000 cells/well in 96-well plates with growth medium containing 10% fetal calf serum and incubated overnight at 37° C. and 5% CO2. Each compound was dissolved in DMSO as a 10 mM stock in standard j-vials and used to prepare compound source plates in dose-response format with 3-fold serial dilutions and a 10 mM top concentration. Compound transfer from serially diluted source plates to assay plates containing the cells was accomplished using a pintool (Multimek 96, Beckman equipped with V&P Scientific FP1S50H pins) based liquid handling protocol. This protocol used a slotted pin to transfer 50 nl of compound from a source plate well to an assay plate well containing 50 μl of cells in growth medium. […] Control wells received 50 nl of DMSO treatment for normalization and calculating IC50 values. The treated cells were incubated at 37° C. and 5% CO2 for an additional forty-two hours. Following incubation, the growth medium was removed and 50 μl of BrightGlo luminescence reagent (Promega) was added to each well of the 96-well assay plates. The plates were placed on an orbital shaker for 5 min and then luminescence was quantified on the Victor3 (Perkin Elmer) plate reader. Readings were normalized to DMSO only treated cells, and normalized activities were utilized for IC50 calculations using the dose-response log (inhibitor) vs. response-variable slope (four parameters) nonlinear regression feature available in GraphPad Prism 5.0 or 6.0.

[2] = system: primary human fibroblasts derived from IPF patients (LL29 cells); test: Inhibition of fibrosis: TGF-β1-treated primary human fibroblasts from IPF patients (LL29), αSMA staining; type: cell-based; settings: Fibroblast, 96 h, TGF-β1 20 ng/mL, 4 days, % αSMA-positive cells
From the text: The above synthesized compounds were screened using primary human fibroblasts (derived from IPF patients) treated with TGF-β1 to determine their ability to inhibit the fibrotic process.
Primary human fibroblasts derived from IPF patients (LL29 cells) [^1Xiaoqiu Liu, et. al., “Fibrotic Lung Fibroblasts Show Blunted Inhibition by cAMP Due to Deficient cAMP Response Element-Binding Protein Phosphorylation”, Journal of Pharmacology and Experimental Therapeutics (2005), 315(2), 678-687; ^2Watts, K. L., et. al., “RhoA signaling modulates cyclin D1 expression in human lung fibroblasts; implications for idiopathic pulmonary fibrosis”, Respiratory Research (2006), 7(1), 88] were obtained from American Type Culture Collection (ATCC) and expanded in F12 medium supplemented with 15% Fetal Bovine Serum and Penicillin/Streptomycin.
Each compound was dissolved in DMSO as a 10 mM stock and used to prepare compound source plates. Serial dilution (1:2, 11-point dose-response curves from 10 μM to 1.87 nM) and compound transfer was performed using the ECHO 550 (Labcyte, Sunnyvale, Calif.) into 384-well clear bottom assay plates (Greiner Bio-One) with appropriate DMSO backfill for a final DMSO concentration of 0.1%. LL29 cells were plated at 1,500 cells/well in 80 μl/well F12 medium supplemented with 1% Fetal Bovine Serum. One hour after addition of the cells, TGF-β1 (Peprotech; 20 ng/mL) was added to the plates to induce fibrosis (ref 1 and 2 above). Wells treated with TGF-β1 and containing DMSO were used as controls. Cells were incubated at 37° C. and 5% CO2 for 4 days. Following incubation for 4 days, SYTOX green nucleic acid stain (Life Technologies [Thermo Fisher Scientific]) was added to the wells at a final concentration of 1 uM and incubated at room temperature for 30 min. Cells were then fixed using 4% formaldehyde (Electron Microscopy Sciences), washed 3 times with PBS followed by blocking and permeabilization using 3% Bovine Serum Albumin (BSA; Sigma) and 0.3% Triton X-100 (Sigma) in PBS. Cells were then stained with antibody specific to α-smooth muscle actin (αSMA; Abcam) (ref 1 and 2 above) in 3% Bovine Serum Albumin (BSA; Sigma) and 0.3% Triton X-100 (Sigma) in PBS, and incubated overnight at 4° C. Cells were then washed 3 times with PBS, followed by incubation with Alexa Flor-647 conjugated secondary antibody (Life Technologies [Thermo Fisher Scientific]) and DAPI at room temperature for 1 hour. Cells were then washed 3 times with PBS and plates were sealed for imaging. αSMA staining was imaged by excitation at 630 nm and emission at 665 nm and quantified using the Compartmental Analysis program on the CellInsight CX5 (Thermo Scientific). Dead or apoptotic cells were excluded from analysis based on positive SYTOX green staining. % of total cells positive for αSMA were counted in each well and normalized to the average of 11 wells treated with TGF-β1 on the same plate using Dotmatics' Studies Software. The normalized averages (fold change over untreated) of 3 replicate wells for each compound concentration were used to create dose-responses curves and EC50 values were calculated using non-linear regression curve fit in the Dotmatics' Studies Software. The EC50 values are reported.

| IC50 [1] [nM] | Structure (SMILES) | EC50 [2] [nM] |
| --- | --- | --- |
| 1 | O=C(Nc1cncc(-c2ccc3[nH]nc(-c4nc5c(-c6cccc(F)c6)nccc5[nH]4)c3c2)c1)C1CC1 [Compound 19, N-(5-(3-(4-(3-Fluorophenyl)-1H-imidazo[4,5-c]pyridin-2-yl)-1H-indazol-5-yl)pyridin-3-yl)cyclopropanecarboxamide] | 9 |
| 633 | Fc1cccc(-c2nccc3[nH]c(-c4n[nH]c5ccc(-c6ccccn6)cc45)nc23)c1 [Compound 1785, 4-(3-Fluorophenyl)-2-(5-(pyridin-2-yl)-1H-indazol-3-yl)-1H-imidazo[4,5-c]pyridine] | 9 |
| 3060 | CCNCc1cncc(-c2ccc3[nH]nc(-c4nc5c(-c6ccccn6)nccc5[nH]4)c3c2)c1 [Compound 136, N-((5-(3-(4-(Pyridin-2-yl)-1H-imidazo[4,5-c]pyridin-2-yl)-1H-indazol-5-yl)pyridin-3-yl)methyl)ethanamine] | 9 |
| 27.9 | O=C(Nc1cncc(-c2ccc3[nH]nc(-c4nc5c(-c6ccoc6)nccc5[nH]4)c3c2)c1)C1CCC1 [Compound 280, N-(5-(3-(4-(Furan-3-yl)-1H-imidazo[4,5-c]pyridin-2-yl)-1H-indazol-5-yl)pyridin-3-yl)cyclobutanecarboxamide] | 1240 |
| 85 | Cc1ccncc1-c1ccc2[nH]nc(-c3nc4c(-c5cc(F)cc(CNS(C)(=O)=O)c5)nccc4[nH]3)c2c1 [Compound 395, N-(3-Fluoro-5-(2-(5-(4-methylpyridin-3-yl)-1H-indazol-3-yl)-1H-imidazo [4,5-c]pyridin-4-yl)benzyl)methanesulfonamide] | 26 |
| 12.8 | O=C(Nc1cncc(-c2ccc3[nH]nc(-c4nc5c(-c6cccc(F)c6)nccc5[nH]4)c3c2)c1)C1CCCC1 [Compound 21, N-(5-(3-(4-(3-Fluorophenyl)-1H-imidazo[4,5-c]pyridin-2-yl)-1H-indazol-5-yl)pyridin-3-yl)cyclopentanecarboxamide] | 317 |
| 9 | Cc1ccc(-c2nccc3[nH]c(-c4n[nH]c5ccc(-c6cncc(NC(=O)C7CCC7)c6)cc45)nc23)s1 [Compound 358, N-(5-(3-(4-(5-Methylthiophen-2-yl)-1H-imidazo[4,5-c]pyridin-2-yl)-1H-indazol-5-yl)pyridin-3-yl)cyclobutanecarboxamide] | 21 |
| 61 | c1ccc(-c2nccc3[nH]c(-c4n[nH]c5ccc(-c6cncc(CNCC7CCCC7)c6)cc45)nc23)nc1 [Compound 154, 1-Cyclopentyl-N-((5-(3-(4-(pyridin-2-yl)-1H-imidazo[4,5-c]pyridin-2-yl)-1H-indazol-5-yl)pyridin-3-yl)methyl)methanamine] | 61 |
| 252 | Fc1cccc(-c2nccc3[nH]c(-c4n[nH]c5ccc(-c6cncc(OC7CCCCC7)c6)cc45)nc23)c1 [Compound 1775, 2-(5-(5-(Cyclohexyloxy)pyridin-3-yl)-1H-indazol-3-yl)-4-(3-fluorophenyl)-1H-imidazo[4,5-c]pyridine] | 9 |
| 126 | O=C(Nc1cncc(-c2ccc3[nH]nc(-c4nc5c(-c6ccsc6)nccc5[nH]4)c3c2)c1)C1CC1 [Compound 253, N-(5-(3-(4-(Thiophen-3-yl)-1H-imidazo[4,5-c]pyridin-2-yl)-1H-indazol-5-yl)pyridin-3-yl)cyclopropanecarboxamide] | 544 |
| 124 | CN(C)CC(=O)Nc1cncc(-c2ccc3[nH]nc(-c4nc5c(-c6cccc(F)c6)nccc5[nH]4)c3c2)c1 [Compound 2251, 2-(Dimethylamino)-N-(5-(3-(4-(3-fluorophenyl)-1H-imidazo[4,5-c]pyridin-2-yl)-1H-indazol-5-yl)pyridin-3-yl)acetamide] | 75 |
| 1 | CCC(=O)Nc1cncc(-c2ccc3[nH]nc(-c4nc5c(-c6cccc(F)c6)nccc5[nH]4)c3c2)c1 [Compound 1, N-(5-(3-(4-(3-Fluorophenyl)-1H-imidazo[4,5-c]pyridin-2-yl)-1H-indazol-5-yl)pyridin-3-yl)propionamide] | 20 |
| 16 | CCCCC(=O)Nc1cncc(-c2ccc3[nH]nc(-c4nc5c(-c6cc(F)cc(NCCN(C)C)c6)nccc5[nH]4)c3c2)c1 [Compound 434, N-(5-(3-(4-(3-((2-(Dimethylamino)ethyl)amino)-5-fluorophenyl)-1H-imidazo[4,5-c]pyridin-2-yl)-1H-indazol-5-yl)pyridin-3-yl)pentanamide] | 459 |
| < 1 | CC(C)Nc1cncc(-c2ccc3[nH]nc(-c4nc5c(-c6ccoc6)nccc5[nH]4)c3c2)c1 [Compound 272, 5-(3-(4-(Furan-3-yl)-1H-imidazo[4,5-c]pyridin-2-yl)-1H-indazol-5-yl)-N-isopropylpyridin-3-amine] | 9 |
| 27.4 | CC(C)(C)C(=O)Nc1cncc(-c2ccc3[nH]nc(-c4nc5c(-c6ccsc6)nccc5[nH]4)c3c2)c1 [Compound 242, N-(5-(3-(4-(Thiophen-3-yl)-1H-imidazo[4,5-c]pyridin-2-yl)-1H-indazol-5-yl)pyridin-3-yl)pivalamide] | 1180 |
| 7 | c1ccc(CNCc2cncc(-c3ccc4[nH]nc(-c5nc6c(-c7ccsc7)nccc6[nH]5)c4c3)c2)cc1 [Compound 257, N-Benzyl-1-(5-(3-(4-(thiophen-3-yl)-1H-imidazo[4,5-c]pyridin-2-yl)-1H-indazol-5-yl)pyridin-3-yl)methanamine] | 9 |
| 30.8 | CC(C)C(=O)Nc1cncc(-c2ccc3[nH]nc(-c4nc5c(-c6cccs6)nccc5[nH]4)c3c2)c1 [Compound 295, N-(5-(3-(4-(Thiophen-2-yl)-1H-imidazo[4,5-c]pyridin-2-yl)-1H-indazol-5-yl)pyridin-3-yl)isobutyramide] | 186 |
| 1.3 | Cc1ccc(-c2nccc3[nH]c(-c4n[nH]c5ccc(-c6cncc(N)c6)cc45)nc23)s1 [Compound 341, 5-(3-(4-(5-Methylthiophen-2-yl)-1H-imidazo[4,5-c]pyridin-2-yl)-1H-indazol-5-yl)pyridin-3-amine] | 9 |
| < 1 | CS(=O)(=O)NCc1cc(F)cc(-c2nccc3[nH]c(-c4n[nH]c5ccc(-c6cncnc6)cc45)nc23)c1 [Compound 416, N-(3-Fluoro-5-(2-(5-(pyrimidin-5-yl)-1H-indazol-3-yl)-1H-imidazo[4,5-c]pyridin-4-yl)benzyl)methanesulfonamide] | 27 |
